Where a name gives a salt, the structure may show the parent alone. Read-outs that look alike come from different tables or passages of the source.
How the values were obtained:
Chlorella sp. HS26 [1] = details: pH-auxostat feed
From the text: Samples were taken daily to measure dry weight and residual acetate concentration of the culture medium.

[2] = system: Aurantiochytrium sp. HS399; details: pH 6±0.2 auxostat, dissolved oxygen
Experimental: An experiment was performed to determine the effect on respiration in microalgae Aurantiochytrium sp. HS399 in response to acetate toxicity (i.e., the increase of the internal cell acetate concentration). […] Data presented corresponds to a 4 day old 30 L bubble column bag bioreactor growing in axenic conditions at culture density of 24 g/L, that was incubated at a temperature of 29.5±0.3° C., and aerated at a rate of 10 LPM. The pH probe: E&H, Digital non-glass pH sensor, Tophit CPS471D helped to maintain the pH at 6±0.2 in a pH auxostat mode. The DO was recorder with a Hamilton, EasyFerm Plus Arc 120, P/N: 242091/06 probe. Samples were taken before and after each pulse and analyzed for residual acetate using HPLC. Internal acetate was fluctuations were calculated based on medium residual acetate by integrating the previously presented equation:

Chlorella sp. HS26 [3] = details: pH 6±0.2 auxostat, dissolved oxygen
Experimental: An experiment was performed to determine the effect on respiration in microalgae Chlorella sp. HS26 in response to acetate toxicity conditions (i.e., the increase of the internal cell acetate concentration). […] Data presented corresponds to a continuous 200 L bubble column culture growing in axenic conditions at culture density of 12 g/L, that was incubated at a temperature of 25 f 0.3° C., and aerated at a rate of 30 LPM. The pH probe: E&H, Digital non-glass pH sensor, Tophit CPS471D helped to maintain the pH at 6±0.2 in a pH auxostat mode. The DO was recorder with a Hamilton, EasyFerm Plus Arc 120, P/N: 242091/06 probe. Samples were taken before and after each pulse and analyzed for residual acetate using HPLC.

[4] = system: Aurantiochytrium sp. HS399
From the text: Because the microalgae pH homeostasis will tend to maintain an internal cell pH slightly above neutral (about 7-8) in response to medium acidification, the acetate built up inside the cell may be modeled. The internal acetate concentration of a cell may be calculated from the external culture pH, and the residual acetate concentration in the culture, assuming that the internal pH of the cell and the ionic strength are maintained constant. The pH gradient between the internal cell pH and pH of the culture medium outside the cell may be calculated with the following equation derived from the Hendersen Hassleback equation, from which the internal acetate concentration can be solved: […]
An experiment was conducted to determine the acetate toxicity of Aurantiochytrium sp. HS399. […] The initial culture medium was supplemented with 30 g/L glycerol and 0.5 or 5 g/L acetate.

[5] = system: Aurantiochytrium sp. HS399; details: pH 5.5 with Acetic Acid, pH 7.0 with HCl
Experimental: (§1) An experiment was performed to determine the effectiveness of applying acetate toxicity to microalgae cultures grown in the presence of a non-acetate organic carbon source, in this case glycerol. Aurantiochytrium sp. HS399 was grown in a 100 L open pond. […] Trace and vitamins stocks were prepared according to Ashford, et al. 2000. Lipids 35, 1377-1386. The ponds were inoculated at 1 v/v using exponentially growing cultures. Aeration was maintained at 0.5 vvm using a porous hose. […] Cytosolic (internal cell) acetate concentration was calculated using the previously described model.

total aerobic bacteria = details: for Contamination: pH 5.5 with Acetic Acid, pH 7.0 with HCl
Experimental: as §1

Chlorella sp. HS26 [6] = system: Chlorella sp. HS26
Experimental: An experiment was conducted with Chlorella sp. HS26 to evaluate the impact of pH induced acetate toxicity on microalgal growth during a batch culturing process. The two treatments of pH 6.5 and pH 7.5 were set up in outdoor raceway ponds utilizing a pH auxostat with a set point at the designated pH values and cultured for seven days. Duplicate cultures of each treatment were performed in the experiment. […] The cultures were inoculated at a density of 1 g/L, cultured at a temperature of 25° C., and received natural sunlight.

Chlorella sp. HS26 [7] = system: Chlorella sp. HS26; remark: listed apart in the source
Experimental: The experiment of Example 11 was repeated with Chlorella sp. HS26 to evaluate the impact of pH induced acetate toxicity on microalgal lipid and protein accumulation. The two treatments of pH 6.5 and pH 7.5 were set up in outdoor raceway ponds utilizing a pH auxostat with a set point at the designated pH values. The microalgae were cultured for 8 days. Duplicate cultures of each treatment were performed in the experiment. […] The cultures were inoculated at a density of 1 g/L, cultured at a temperature of 25° C., and received natural sunlight.

[8] = system: Aurantiochytrium sp. HS399; remark: listed apart in the source
[9] = system: Aurantiochytrium sp. HS399; details: nitrogen source
Experimental: An experiment was conducted to determine the effect of different nitrogen sources on the internal cell acetate concentration for cultures of Aurantiochytrium sp. HS399 cultures. […] 7H2O (2.5), KCl (0.5), CaCl2 (0.1), KH2PO4 (0.5) vitamins (1 ml/L) and trace metal (5 ml/L). […] The ponds were inoculated at 1 v/v using exponentially growing cultures. Aeration was maintained at 0.5 vvm using a porous hose. Equimolar nitrogen concentrations were added top each pond reactor. […] Culture dry weights (filtration) and residual acetate (HPLC) in the culture medium were analyzed daily. Cytosolic (internal cell) acetate concentration was calculated using the previously described model.

SMILES: CC(=O)O [Acetic Acid, acetic acid]
- Cell Dry Weight (Chlorella sp. HS26 [1]; day 0): 0.3 g/L
- Cell Dry Weight (Chlorella sp. HS26 [1]; day 1): 0.8 g/L
- Cell Dry Weight (Chlorella sp. HS26 [1]; day 2): 2.7 g/L
- Cell Dry Weight (Chlorella sp. HS26 [1]; day 3): 3.7 g/L
- Cell Dry Weight (Chlorella sp. HS26 [1]; day 4): 4.7 g/L
- Cell Dry Weight (Chlorella sp. HS26 [1]; day 5): 5.3 g/L
- Cell Dry Weight (Chlorella sp. HS26 [1]; day 6): 5.3 g/L
- Aerobic bacteria count (Aerobic bacteria; pH set point 5.5, day 0.0): 1.1E+04 CFU/mL
- Aerobic bacteria count (Aerobic bacteria; pH set point 5.5, day 0.9): 2.1E+04 CFU/mL
- Aerobic bacteria count (Aerobic bacteria; pH set point 5.5, day 1.9): 2.2E+04 CFU/mL
- respiration rate in response to acetic acid toxicity [2]: increases respiration rate
- respiration rate in response to acetic acid toxicity (Chlorella sp. HS26 [3]): increases its respiration rate
- growth ([4]; 53 g/L internal acetate concentration): tolerated
- growth ([4]; 153 g/l internal acetate concentration): inhibited
- growth ([4]; 329 g/L internal acetate concentration): did not proliferate
- Cell Dry Weight ([4]; pH 4.5, day 0): 0.3 g/L
- Cell Dry Weight ([4]; pH 4.5, day 1): 1.8 g/L
- Cell Dry Weight ([4]; pH 4.5, day 2): 4.5 g/L
- Cell Dry Weight ([4]; pH 4.5, day 3): 6.4 g/L
- Cell Dry Weight ([4]; pH 4.5, day 4): 7.8 g/L
- Cell Dry Weight ([4]; pH 4.5, day 5): 8.4 g/L
- Cell Dry Weight ([4]; pH 4.5, day 6): 9.3 g/L
- Cell Dry Weight ([4]; pH 5.0, day 0): 0.3 g/L
- Cell Dry Weight ([4]; pH 5.0, day 1): 2.1 g/L
- Cell Dry Weight ([4]; pH 5.0, day 2): 5.6 g/L
- Cell Dry Weight ([4]; pH 5.0, day 3): 8.1 g/L
- Cell Dry Weight ([4]; pH 5.0, day 4): 9.9 g/L
- Cell Dry Weight ([4]; pH 5.0, day 5): 10.6 g/L
- Cell Dry Weight ([4]; pH 5.0, day 6): 11.4 g/L
- Cell Dry Weight ([4]; pH 5.5, day 0): 0.3 g/L
- Cell Dry Weight ([4]; pH 5.5, day 1): 1.9 g/L
- Cell Dry Weight ([4]; pH 5.5, day 2): 5.5 g/L
- Cell Dry Weight ([4]; pH 5.5, day 3): 8.5 g/L
- Cell Dry Weight ([4]; pH 5.5, day 4): 10.8 g/L
- Cell Dry Weight ([4]; pH 5.5, day 5): 11.4 g/L
- Cell Dry Weight ([4]; pH 5.5, day 6): 12.0 g/L
- Cell Dry Weight ([4]; pH 7.0, day 0): 0.3 g/L
- Cell Dry Weight ([4]; pH 7.0, day 1): 2.7 g/L
- Cell Dry Weight ([4]; pH 7.0, day 2): 7.1 g/L
- Cell Dry Weight ([4]; pH 7.0, day 3): 9.8 g/L
- Cell Dry Weight ([4]; pH 7.0, day 4): 12.0 g/L
- Cell Dry Weight ([4]; pH 7.0, day 5): 12.7 g/L
- Cell Dry Weight ([4]; pH 7.0, day 6): 12.7 g/L
- Cell Dry Weight ([5]; day 0): 0.0 g/L
- Cell Dry Weight ([5]; day 1): 1.1 g/L
- Cell Dry Weight ([5]; day 2): 3.5 g/L
- Cell Dry Weight ([5]; day 3): 6.2 g/L
- Cell Dry Weight ([5]; day 4): 7.7 g/L
- Cell Dry Weight ([5]; day 5): 9.7 g/L
- Contamination (total aerobic bacteria; day 0): 5.5E+04 CFU/mL
- Contamination (total aerobic bacteria; day 1): 4.8E+05 CFU/mL
- Contamination (total aerobic bacteria; day 2): 5.7E+07 CFU/mL
- Contamination (total aerobic bacteria; day 3): 4.0E+10 CFU/mL
- Contamination (total aerobic bacteria; day 4): 4.6E+12 CFU/mL
- Contamination (total aerobic bacteria; day 5): 8.0E+14 CFU/mL
- decrease of aerobic bacteria counts versus other treatment (total aerobic bacteria; throughout the batch, acetate toxicity conditions (pH 5.5)): ≥ 3 log
- average three-day productivity (Chlorella sp. HS26 [6]; pH 6.5 cultures): 1.14 g/L/day
- average three-day productivity (Chlorella sp. HS26 [6]; pH 7.5 cultures): 0.76 g/L/day
- Ash (Chlorella sp. HS26 [7]; pH 6.5, day 0): 26 6 % DW
- Total Carbohydrates (Chlorella sp. HS26 [7]; pH 6.5, day 0): 28.51 % DW
- Total Lipids (Chlorella sp. HS26 [7]; pH 6.5, day 0): 9.82 % DW
- Total Protein (Chlorella sp. HS26 [7]; pH 6.5, day 0): 35.07 % DW
- Ash (Chlorella sp. HS26 [7]; pH 6.5, day 8): 3.26 % DW
- Total Carbohydrates (Chlorella sp. HS26 [7]; pH 6.5, day 8): 32.13 % DW
- Total Lipids (Chlorella sp. HS26 [7]; pH 6.5, day 8): 29.34 % DW
- Total Protein (Chlorella sp. HS26 [7]; pH 6.5, day 8): 35.28 % DW
- Ash (Chlorella sp. HS26 [7]; pH 7.5, day 0): 26 6 % DW
- Total Carbohydrates (Chlorella sp. HS26 [7]; pH 7.5, day 0): 28.51 % DW
- Total Lipids (Chlorella sp. HS26 [7]; pH 7.5, day 0): 9.82 % DW
- Total Protein (Chlorella sp. HS26 [7]; pH 7.5, day 0): 35.07 % DW
- Ash (Chlorella sp. HS26 [7]; pH 7.5, day 8): 3.05 % DW
- Total Carbohydrates (Chlorella sp. HS26 [7]; pH 7.5, day 8): 33.62 % DW
- Total Lipids (Chlorella sp. HS26 [7]; pH 7.5, day 8): 23.66 % DW
- Total Protein (Chlorella sp. HS26 [7]; pH 7.5, day 8): 39.69 % DW
- growth inhibited ([8]; internal acetate concentration 53 g/L): not
- growth inhibited ([8]; internal acetate concentration 153 g/L): inhibited
- Cell Dry Weights ([8]; pH 4.5, day 0): 0.4 g/L
- Cell Dry Weights ([8]; pH 4.5, day 1): 0.5 g/L
- Cell Dry Weights ([8]; pH 4.5, day 2): 0.3 g/L
- Cell Dry Weights ([8]; pH 4.5, day 3): 0.2 g/L
- Cell Dry Weights ([8]; pH 4.5, day 4): 0.3 g/L
- Cell Dry Weights ([8]; pH 4.5, day 5): 0.0 g/L
- Cell Dry Weights ([8]; pH 5.0, day 0): 0.4 g/L
- Cell Dry Weights ([8]; pH 5.0, day 1): 2.3 g/L
- Cell Dry Weights ([8]; pH 5.0, day 2): 5.0 g/L
- Cell Dry Weights ([8]; pH 5.0, day 3): 7.1 g/L
- Cell Dry Weights ([8]; pH 5.0, day 4): 8.9 g/L
- Cell Dry Weights ([8]; pH 5.0, day 5): 10.0 g/L
- Cell Dry Weights ([8]; pH 5.5, day 0): 0.4 g/L
- Cell Dry Weights ([8]; pH 5.5, day 1): 2.7 g/L
- Cell Dry Weights ([8]; pH 5.5, day 2): 5.6 g/L
- Cell Dry Weights ([8]; pH 5.5, day 3): 8.0 g/L
- Cell Dry Weights ([8]; pH 5.5, day 4): 10.2 g/L
- Cell Dry Weights ([8]; pH 5.5, day 5): 11.6 g/L
- Cell Dry Weights ([8]; pH 7.0, day 0): 0.4 g/L
- Cell Dry Weights ([8]; pH 7.0, day 1): 1.5 g/L
- Cell Dry Weights ([8]; pH 7.0, day 2): 2.9 g/L
- Cell Dry Weights ([8]; pH 7.0, day 3): 4.1 g/L
- Cell Dry Weights ([8]; pH 7.0, day 4): 5.4 g/L
- Cell Dry Weights ([8]; pH 7.0, day 5): 6.3 g/L

SMILES: Cl [HCl, hydrochloric acid]
- Cell Dry Weight ([5]; day 0): 0.1 g/L
- Cell Dry Weight ([5]; day 1): 1.6 g/L
- Cell Dry Weight ([5]; day 2): 4.3 g/L
- Cell Dry Weight ([5]; day 3): 5.5 g/L
- Cell Dry Weight ([5]; day 4): 6.5 g/L
- Cell Dry Weight ([5]; day 5): 8.1 g/L
- Contamination (total aerobic bacteria; day 0): 1.9E+05 CFU/mL
- Contamination (total aerobic bacteria; day 1): 2.9E+10 CFU/mL
- Contamination (total aerobic bacteria; day 2): 1.3E+16 CFU/mL
- Contamination (total aerobic bacteria; day 3): 2.1E+18 CFU/mL
- Contamination (total aerobic bacteria; day 4): 1.4E+17 CFU/mL
- Contamination (total aerobic bacteria; day 5): 3.4E+21 CFU/mL

SMILES: N[C@@H](CCC(=O)O)C(=O)[O-].[Na+] [MSG, monosodium glutamate]
- Cell Dry Weight ([9]; day 0): 0.2 g/L
- Cell Dry Weight ([9]; day 1): 3.5 g/L
- Cell Dry Weight ([9]; day 2): 6.8 g/L
- Cell Dry Weight ([9]; day 3): 8.1 g/L
- Cell Dry Weight ([9]; day 4): 9.7 g/L
- Cell Dry Weight ([9]; day 5): 10.2 g/L

SMILES: N [NH3, ammonia]
- Cell Dry Weight ([9]; day 0): 0.2 g/L
- Cell Dry Weight ([9]; day 1): 1.9 g/L
- Cell Dry Weight ([9]; day 2): 7.4 g/L
- Cell Dry Weight ([9]; day 3): 7.8 g/L
- Cell Dry Weight ([9]; day 4): 9.9 g/L
- Cell Dry Weight ([9]; day 5): 10.3 g/L
